Test results published in PubChem BioAssay AID2060614 (Molecular Pharmacology Branch, DTP, NCI, 2025).

System: 598228-144-R-J1-PDC complex spheroids, viability
Assay: Anticancer human tumor 598228-144-R-J1-PDC patient-derived serous endometrial adenocarcinoma cell line growth inhibition [CLK]
Settings: for IC50: curve of first compound; for viability, T/C: stronger effect = lower value
Summary of the method: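 Multi-cell-type spheroids combined patient-derived tumor cells with HUVEC endothelial cells and human mesenchymal stem cells. Paired agents were dosed in half-log steps down from about clinical Cmax, or from 10 microM where Cmax was unknown.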
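Further: spheroids exposed to compounds for seven days before readout.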
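Wherever viability, T/C is given: 100% = DMSO vehicle control wells.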

NC(=O)C(=Cn1cnc(-c2cc(C(F)(F)F)cc(C(F)(F)F)c2)n1)c1cncnc1 + CN1CCN(c2cc(C(=O)Nc3cc4cc(-c5cnn(C)c5)ccc4cn3)ccn2)CC1
IC50 (second compound 0.0316 µM): 236 nM | IC50 (second compound 0.1 µM): 344 nM | IC50 (second compound 0.316 µM): < 9.49 nM | IC50 (second compound 1 µM): < 9.49 nM | IC50 (second compound 3.16 µM): < 9.49 nM | IC50 (second compound 10 µM): < 9.49 nM | viability, T/C (second compound 0.0316 µM, first compound 0.00949 µM): 108% | viability, T/C (second compound 0.0316 µM, first compound 0.03 µM): 109% | viability, T/C (second compound 0.0316 µM, first compound 0.0949 µM): 72.9% | viability, T/C (second compound 0.0316 µM, first compound 0.3 µM): 47.6% | viability, T/C (second compound 0.0316 µM, first compound 0.949 µM): 29.3% | viability, T/C (second compound 0.0316 µM, first compound 3 µM): 37.8% | viability, T/C (second compound 0.1 µM, first compound 0.00949 µM): 114% | viability, T/C (second compound 0.1 µM, first compound 0.03 µM): 87.4% | viability, T/C (second compound 0.1 µM, first compound 0.0949 µM): 76.9% | viability, T/C (second compound 0.1 µM, first compound 0.3 µM): 47.7% | viability, T/C (second compound 0.1 µM, first compound 0.949 µM): 38.9% | viability, T/C (second compound 0.1 µM, first compound 3 µM): 9.13% | viability, T/C (second compound 0.316 µM, first compound 0.00949 µM): 12.9% | viability, T/C (second compound 0.316 µM, first compound 0.03 µM): 6.08% | viability, T/C (second compound 0.316 µM, first compound 0.0949 µM): 0.74% | viability, T/C (second compound 0.316 µM, first compound 0.3 µM): 0.62% | viability, T/C (second compound 0.316 µM, first compound 0.949 µM): 2.45% | viability, T/C (second compound 0.316 µM, first compound 3 µM): 1.39% | viability, T/C (second compound 1 µM, first compound 0.00949 µM): 0.59% | viability, T/C (second compound 1 µM, first compound 0.03 µM): 0.85% | viability, T/C (second compound 1 µM, first compound 0.0949 µM): 1.1% | viability, T/C (second compound 1 µM, first compound 0.3 µM): 1.03% | viability, T/C (second compound 1 µM, first compound 0.949 µM): 0.66% | viability, T/C (second compound 1 µM, first compound 3 µM): 0.41% | viability, T/C (second compound 3.16 µM, first compound 0.00949 µM): 1.32% | viability, T/C (second compound 3.16 µM, first compound 0.03 µM): 2.21% | viability, T/C (second compound 3.16 µM, first compound 0.0949 µM): 2.27% | viability, T/C (second compound 3.16 µM, first compound 0.3 µM): 1.81% | viability, T/C (second compound 3.16 µM, first compound 0.949 µM): 4.57% | viability, T/C (second compound 3.16 µM, first compound 3 µM): 0.46% | viability, T/C (second compound 10 µM, first compound 0.00949 µM): 0.86% | viability, T/C (second compound 10 µM, first compound 0.03 µM): 0.87% | viability, T/C (second compound 10 µM, first compound 0.0949 µM): 1.32% | viability, T/C (second compound 10 µM, first compound 0.3 µM): 0.79% | viability, T/C (second compound 10 µM, first compound 0.949 µM): 1.73% | viability, T/C (second compound 10 µM, first compound 3 µM): 0.39%

Nc1ccccc1NC(=O)c1ccc(CNC(=O)OCc2cccnc2)cc1 + CN1CCN(c2cc(C(=O)Nc3cc4cc(-c5cnn(C)c5)ccc4cn3)ccn2)CC1
IC50 (second compound 0.0316 µM): 1780 nM | IC50 (second compound 0.1 µM): 2170 nM | IC50 (second compound 0.316 µM): < 31.6 nM | IC50 (second compound 1 µM): < 31.6 nM | IC50 (second compound 3.16 µM): < 31.6 nM | IC50 (second compound 10 µM): < 31.6 nM | viability, T/C (second compound 0.0316 µM, first compound 0.0316 µM): 125% | viability, T/C (second compound 0.0316 µM, first compound 0.1 µM): 114% | viability, T/C (second compound 0.0316 µM, first compound 0.316 µM): 93.4% | viability, T/C (second compound 0.0316 µM, first compound 1 µM): 68.2% | viability, T/C (second compound 0.0316 µM, first compound 3.16 µM): 32.4% | viability, T/C (second compound 0.0316 µM, first compound 10 µM): 3.45% | viability, T/C (second compound 0.1 µM, first compound 0.0316 µM): 121% | viability, T/C (second compound 0.1 µM, first compound 0.1 µM): 123% | viability, T/C (second compound 0.1 µM, first compound 0.316 µM): 97.2% | viability, T/C (second compound 0.1 µM, first compound 1 µM): 71.3% | viability, T/C (second compound 0.1 µM, first compound 3.16 µM): 41% | viability, T/C (second compound 0.1 µM, first compound 10 µM): 0.32% | viability, T/C (second compound 0.316 µM, first compound 0.0316 µM): 17.1% | viability, T/C (second compound 0.316 µM, first compound 0.1 µM): 14.1% | viability, T/C (second compound 0.316 µM, first compound 0.316 µM): 13% | viability, T/C (second compound 0.316 µM, first compound 1 µM): 10.7% | viability, T/C (second compound 0.316 µM, first compound 3.16 µM): 1.75% | viability, T/C (second compound 0.316 µM, first compound 10 µM): 0.23% | viability, T/C (second compound 1 µM, first compound 0.0316 µM): 1.29% | viability, T/C (second compound 1 µM, first compound 0.1 µM): 1.3% | viability, T/C (second compound 1 µM, first compound 0.316 µM): 1.11% | viability, T/C (second compound 1 µM, first compound 1 µM): 1.01% | viability, T/C (second compound 1 µM, first compound 3.16 µM): 1.46% | viability, T/C (second compound 1 µM, first compound 10 µM): 0.57% | viability, T/C (second compound 3.16 µM, first compound 0.0316 µM): 1.49% | viability, T/C (second compound 3.16 µM, first compound 0.1 µM): 3.39% | viability, T/C (second compound 3.16 µM, first compound 0.316 µM): 1.88% | viability, T/C (second compound 3.16 µM, first compound 1 µM): 1.93% | viability, T/C (second compound 3.16 µM, first compound 3.16 µM): 1.66% | viability, T/C (second compound 3.16 µM, first compound 10 µM): 0.89% | viability, T/C (second compound 10 µM, first compound 0.0316 µM): 0.8% | viability, T/C (second compound 10 µM, first compound 0.1 µM): 0.77% | viability, T/C (second compound 10 µM, first compound 0.316 µM): 1.17% | viability, T/C (second compound 10 µM, first compound 1 µM): 1.13% | viability, T/C (second compound 10 µM, first compound 3.16 µM): 2.8% | viability, T/C (second compound 10 µM, first compound 10 µM): 2.51%
